Source: article PMC9610999, “Itraconazole-Induced Increases in Gilteritinib Exposure Are Mediated by CYP3A and OATP1B” (Molecules, 2022)

How the values were obtained:
[1] = target: T1, human OATP1B1 (SLCO1B1) (Homo sapiens, UniProt Q9Y6L6); assay: Transport inhibition assay: EβG uptake in OATP1B1 overexpressing HEK293 cells; format: cell-based; conditions: OATP1B1 overexpressing HEK293 cells vs vector control; radiolabeled EβG; 15 min pre-incubation; read-out: IC50, inhibition of OATP1B1-mediated cellular accumulation of EβG
T1 construct: expressed in transfected cells; host or cells: HEK293
T1 sequence (Q9Y6L6 1-691): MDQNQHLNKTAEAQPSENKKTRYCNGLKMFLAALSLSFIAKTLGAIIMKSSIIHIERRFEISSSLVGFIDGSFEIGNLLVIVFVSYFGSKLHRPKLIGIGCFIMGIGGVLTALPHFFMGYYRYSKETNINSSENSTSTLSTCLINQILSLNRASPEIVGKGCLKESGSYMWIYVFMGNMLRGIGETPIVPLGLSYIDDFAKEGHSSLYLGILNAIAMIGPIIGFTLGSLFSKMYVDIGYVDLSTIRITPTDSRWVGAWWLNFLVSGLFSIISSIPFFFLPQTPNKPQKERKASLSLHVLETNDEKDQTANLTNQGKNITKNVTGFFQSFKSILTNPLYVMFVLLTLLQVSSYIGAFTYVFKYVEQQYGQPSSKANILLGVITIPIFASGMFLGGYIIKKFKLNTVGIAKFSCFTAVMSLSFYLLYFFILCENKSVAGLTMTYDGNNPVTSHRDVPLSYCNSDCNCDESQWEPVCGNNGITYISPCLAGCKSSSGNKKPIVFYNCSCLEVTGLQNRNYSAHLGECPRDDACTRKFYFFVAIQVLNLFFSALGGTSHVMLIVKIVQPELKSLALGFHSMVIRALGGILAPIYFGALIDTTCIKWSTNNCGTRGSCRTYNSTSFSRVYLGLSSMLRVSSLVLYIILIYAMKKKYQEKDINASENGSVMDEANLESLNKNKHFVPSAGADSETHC
Protocol: Human embryonic kidney (HEK293) cells stably transfected with human OATP1B1 (SLCO1B1) cDNA, or an empty control vector were established and cultured as previously described. Cells were maintained in DMEM supplemented with 10% FBS, 50 µg/mL hygromycin B, 15 µg/mL blasticidin, and maintained in a humidified incubator at 37 °C with 5% CO2. Prior to plating, 24-well tissue culture plates (Thermo Fisher Scientific) were coated with poly-d-lysine. Seeding media was prepared using phenol red-free DMEM with 10% FBS with no selection agents. To the seeding media, […] of doxycycline was added to induce expression of OATP1B1.
OATP1B1 overexpressing cells and vector control cells were plated in 24-well tissue culture plates at a volume of 0.5 mL (containing 2 × 10^6 cells/mL) per well. Plates were returned to an incubator at 37 °C and transport assays were conducted 24 h later. Transport activity was measured using EβG, a prototypical substrate of OATP1B1. Experiments were conducted using phenol red- and serum-free DMEM. Intracellular levels of total radioactivity originating from EβG were assessed by liquid scintillation counting. The resulting counts were normalized to total protein levels as determined by a Pierce protein assay. The influence of gilteritinib, itraconazole, keto-itraconazole, or hydroxy-itraconazole on OATP1B1-mediated transport was assessed following a 15 min pre-incubation at various concentrations of test inhibitors followed by co-incubation of test inhibitors with EβG. Inhibition of transport activity by gilteritinib was determined by comparing the accumulation of EβG in the presence of gilteritinib, itraconazole, keto-itraconazole, or hydroxy-itraconazole to that of EβG in the presence of only the control vehicle, DMSO. The final concentration of DMSO in media was less than 0.2% in all in vitro experiments.

[2] = tested on: CDCA-24G, an endogenous biomarker of OATP1B transporter function; assay: Plasma CDCA-24G (endogenous biomarker of OATP1B function) in mice treated with itraconazole; format: in vivo
[3] = tested on: OATP1B biomarkers coproporphyrin (CP) I and CPIII; set-up: method as in PMID 34049965, PMID 29777022; conditions: itraconazole 100 mg to human subjects; cited from earlier work

SMILES | IC50 [1] [µM] | CDCA-24G AUC0–4h ([2]; 100 mg/kg) | CDCA-24G AUC0–4h ([2]; CYP3A(−/−) female mice, itraconazole 100 mg/kg) | CDCA-24G AUC Fold Increase ([2]; CYP3A(−/−) mice, itraconazole 100 mg/kg, vs. CYP3A(−/−) untreated) [fold] | CDCA-24G AUC Fold Increase ([2]; CYP3A(−/−) mice, itraconazole 100 mg/kg, vs. WT Alone) [fold] | CDCA-24G AUC Fold Increase ([2]; Wild-type FVB mice, itraconazole 100 mg/kg, vs. CYP3A(−/−) + Itraconazole) [fold] | CDCA-24G AUC Fold Increase ([2]; Wild-type FVB mice, itraconazole 100 mg/kg, vs. WT untreated) [fold] | Effect on circulating levels of coproporphyrin (CP) I and CPIII [3]
CC(O)C(C)n1ncn(-c2ccc(N3CCN(c4ccc(OCC5COC(Cn6cncn6)(c6ccc(Cl)cc6Cl)O5)cc4)CC3)cc2)c1=O (stereo not shown) [hydroxy-itraconazole] | 2.95 |  |  |  |  |  |  | 
CCC(C)n1ncn(-c2ccc(N3CCN(c4ccc(OCC5COC(Cn6cncn6)(c6ccc(Cl)cc6Cl)O5)cc4)CC3)cc2)c1=O (stereo not shown) [Itraconazole] | 27.3 | 5.10 (±1.60) ng ∗ h/mL | 3.30 (±1.00) ng ∗ h/mL | 1 | 0.9 | 1.5 | 1.3 | not associated with changes
CC(=O)C(C)n1ncn(-c2ccc(N3CCN(c4ccc(OC[C@H]5CO[C@](Cn6cncn6)(c6ccc(Cl)cc6Cl)O5)cc4)CC3)cc2)c1=O (stereo partly shown) [keto-itraconazole] | 7.5 |  |  |  |  |  |  | 
